For ten compounds, mutagenic call results are on record in PubChem BioAssay AID1259407 (Chemical Carcinogenesis Research Information System (CCRIS), 2018).

This series has as its system CCRIS mutagenicity, Ames/micronucleus/aberration tests. Kind of series: CCRIS mutagenicity studies.
Setting [1] is: Test System: AMES SALMONELLA TYPHIMURIUM, Strain/Indicator: TA100, Metabolic Activation: NONE, Method: STANDARD PLATE.
Where [2] appears, read: Test System: AMES SALMONELLA TYPHIMURIUM, Strain/Indicator: TA98, Metabolic Activation: NONE, Method: PREINCUBATION
[3] abbreviates: Test System: AMES SALMONELLA TYPHIMURIUM, Strain/Indicator: TA100, Metabolic Activation: NONE, Method: PREINCUBATION
The mark [4] stands for this setting: Test System: AMES SALMONELLA TYPHIMURIUM, Strain/Indicator: TA1535, Metabolic Activation: NONE, Method: PREINCUBATION
[5] abbreviates: Test System: AMES SALMONELLA TYPHIMURIUM, Strain/Indicator: TA1537, Metabolic Activation: NONE, Method: PREINCUBATION

SMILES strings stand for the structures. Calls of active or inactive are those of the source. The rule behind the calls is not given here.

As to `COc1ccc(-c2nc(-c3ccc(OC)cc3)c(-c3ccc(OC)cc3)[nH]2)cc1`, the mutagenic call runs as follows: (Test System: AMES SALMONELLA TYPHIMURIUM, Strain/Indicator: TA98, Metabolic Activation: NONE, Method: STANDARD PLATE) “active; positive”; (Test System: AMES SALMONELLA TYPHIMURIUM, Strain/Indicator: TA98, Metabolic Activation: RAT LIVER S-9, 3-METHYLCHOLANTHRENE, SODIUM PHENOBARBITAL, Method: STANDARD PLATE) “inactive; negative”; under setting [1], “inactive; negative”; (Test System: AMES SALMONELLA TYPHIMURIUM, Strain/Indicator: TA100, Metabolic Activation: RAT LIVER S-9, 3-METHYLCHOLANTHRENE, SODIUM PHENOBARBITAL, Method: STANDARD PLATE) “inactive; negative”.

Regarding `Nc1nc2c(ncn2COCCO)c(=O)[nH]1`, under “End Point: IN VITRO CHROMOSOMAL ABERRATIONS, Test System: CHO CELLS (CHO-HSVTK), Metabolic Activation: NONE”, the mutagenic call is “active; positive (structural changes); concentration chosen also induced apoptosis”.

Regarding `O[C@H]1[C@@H]2O[C@@H]2C=C[C@@H]1O`, the mutagenic call is “inactive; negative” under setting [2], “inactive; negative” under setting [3] and “active; positive” under setting [4].

As to `Cc1ccc(Cl)cc1N`, the mutagenic call (End Point: IN VITRO CHROMOSOMAL ABERRATIONS, Test System: CHINESE HAMSTER OVARY CELLS, Metabolic Activation: NONE) was “inactive; negative”; the mutagenic call (End Point: IN VITRO CHROMOSOMAL ABERRATIONS, Test System: CHINESE HAMSTER OVARY CELLS, Metabolic Activation: RAT, LIVER, S-9, AROCLOR 1254) was “inactive; negative”; the mutagenic call (Test System: UDS RODENT HEPATOCYTES, Strain/Indicator: THY INCORP (NON-S-PHASE), Metabolic Activation: NONE, Method: AUTORADIOGRAPHY) is “inactive; negative”.

Regarding `ClC[C@@H](Br)CBr`, the mutagenic call (Test System: AMES SALMONELLA TYPHIMURIUM, Strain/Indicator: TA100, Metabolic Activation: RAT, LIVER, MICROSOMES, Method: PREINCUBATION) was “active; positive”.

As for `COC(=O)[C@H](C)Cl`, the mutagenic call was “inactive; negative” under setting [3] and “inactive; negative” (Test System: AMES SALMONELLA TYPHIMURIUM, Strain/Indicator: TA100, Metabolic Activation: RAT, LIVER, S-9, PCB, Method: PREINCUBATION).

Regarding `CC(C)=CCC/C(C)=C/C=C/C(C)=C/C=C/C(C)=C/C=C/C=C(C)/C=C/C=C(C)/C=C/C=C(\C)CCC=C(C)C`, the mutagenic call was “inactive; negative” under setting [2]; “inactive; negative” (Test System: AMES SALMONELLA TYPHIMURIUM, Strain/Indicator: TA98, Metabolic Activation: RAT LIVER S-9, Method: PREINCUBATION); “inactive; negative” under setting [3]; “inactive; negative” (Test System: AMES SALMONELLA TYPHIMURIUM, Strain/Indicator: TA100, Metabolic Activation: RAT LIVER S-9, Method: PREINCUBATION); “inactive; negative” under setting [4]; “inactive; negative” (Test System: AMES SALMONELLA TYPHIMURIUM, Strain/Indicator: TA1535, Metabolic Activation: RAT LIVER S-9, Method: PREINCUBATION). Besides, the mutagenic call by setting is: under setting [5], “inactive; negative”; (Test System: AMES SALMONELLA TYPHIMURIUM, Strain/Indicator: TA1537, Metabolic Activation: RAT LIVER S-9, Method: PREINCUBATION) “inactive; negative”; (Test System: ESCHERICHIA COLI, Strain/Indicator: WP2 UVR A, Metabolic Activation: NONE, Method: PREINCUBATION) “inactive; negative”; (Test System: ESCHERICHIA COLI, Strain/Indicator: WP2 UVR A, Metabolic Activation: RAT LIVER S-9, Method: PREINCUBATION) “inactive; negative”.

With `CCCCN(CCC)N=O`, the mutagenic call (Test System: AMES SALMONELLA TYPHIMURIUM, Strain/Indicator: TA100, Metabolic Activation: RAT, LIVER, S-9, KC500 OR PHENOBARBITAL, Method: LIQUID SUSPENSION) was “active; positive” and the mutagenic call (Test System: MOUSE LYMPHOMA, Strain/Indicator: L5178Y (TK+/TK-), Metabolic Activation: RAT, LIVER, S-9, AROCLOR 1254, Method: SUSPENSION/PLATE) was “active; positive”.

Consider `O=C(Cn1ccnc1[N+](=O)[O-])NCc1ccccc1`, for which the mutagenic call by setting is: under setting [1], “active; positive”; (Test System: AMES SALMONELLA TYPHIMURIUM, Strain/Indicator: TA100, Metabolic Activation: RAT, LIVER, S-9, AROCLOR 1254, Method: STANDARD PLATE) “active; positive”.

With `CCCCCCCCCC(=O)O`, the mutagenic call (Test System: AMES SALMONELLA TYPHIMURIUM, Strain/Indicator: TA97, Metabolic Activation: HAMSTER, LIVER, S-9, AROCLOR 1254 (10 OR 30%), Method: PREINCUBATION) is “inactive; negative”; the mutagenic call (Test System: AMES SALMONELLA TYPHIMURIUM, Strain/Indicator: TA97, Metabolic Activation: NONE, Method: PREINCUBATION) was “inactive; negative”; the mutagenic call (Test System: AMES SALMONELLA TYPHIMURIUM, Strain/Indicator: TA97, Metabolic Activation: RAT, LIVER, S-9, AROCLOR 1254 (10 OR 30%), Method: PREINCUBATION) is “inactive; negative”; the mutagenic call (Test System: AMES SALMONELLA TYPHIMURIUM, Strain/Indicator: TA98, Metabolic Activation: HAMSTER, LIVER, S-9, AROCLOR 1254 (10 OR 30%), Method: PREINCUBATION) was “inactive; negative”; the mutagenic call under setting [2] is “inactive; negative”; the mutagenic call (Test System: AMES SALMONELLA TYPHIMURIUM, Strain/Indicator: TA98, Metabolic Activation: RAT, LIVER, S-9, AROCLOR 1254 (10 OR 30%), Method: PREINCUBATION) is “inactive; negative”. Besides, the mutagenic call is “inactive; negative” (Test System: AMES SALMONELLA TYPHIMURIUM, Strain/Indicator: TA100, Metabolic Activation: HAMSTER, LIVER, S-9, AROCLOR 1254 (10 OR 30%), Method: PREINCUBATION); “inactive; negative” under setting [3]; “inactive; negative” (Test System: AMES SALMONELLA TYPHIMURIUM, Strain/Indicator: TA100, Metabolic Activation: RAT, LIVER, S-9, AROCLOR 1254 (10 OR 30%), Method: PREINCUBATION); “inactive; negative” (Test System: AMES SALMONELLA TYPHIMURIUM, Strain/Indicator: TA1535, Metabolic Activation: HAMSTER, LIVER, S-9, AROCLOR 1254 (10 OR 30%), Method: PREINCUBATION); “inactive; negative” under setting [4]; “inactive; negative” (Test System: AMES SALMONELLA TYPHIMURIUM, Strain/Indicator: TA1535, Metabolic Activation: RAT, LIVER, S-9, AROCLOR 1254 (10 OR 30%), Method: PREINCUBATION). The mutagenic call reads like this: (Test System: AMES SALMONELLA TYPHIMURIUM, Strain/Indicator: TA1537, Metabolic Activation: HAMSTER, LIVER, S-9, AROCLOR 1254 (10 OR 30%), Method: PREINCUBATION) “inactive; negative”; under setting [5], “inactive; negative”; (Test System: AMES SALMONELLA TYPHIMURIUM, Strain/Indicator: TA1537, Metabolic Activation: RAT, LIVER, S-9, AROCLOR 1254 (10 OR 30%), Method: PREINCUBATION) “inactive; negative”.
